≈ marks a conversion by molar mass, not a printed value.
How the values were obtained:
[1] = biological target: T1, Metallo-beta-lactamase NDM-4 (Escherichia coli) (UniProt H6WZS9); assay: Inhibition of NDM4 in Escherichia coli isolate 3 assessed as potentiation of meropenem-induced bactericidal activity by measuring bacterial killing in late exponential phase at 64 ug/ml incubated for 24 hrs followed by replating on agar plates for 16 to 18 hrs and measured up to 24 hrs by time kill assay; details: TDE = time-dependent effect
T1 sequence (whole entry): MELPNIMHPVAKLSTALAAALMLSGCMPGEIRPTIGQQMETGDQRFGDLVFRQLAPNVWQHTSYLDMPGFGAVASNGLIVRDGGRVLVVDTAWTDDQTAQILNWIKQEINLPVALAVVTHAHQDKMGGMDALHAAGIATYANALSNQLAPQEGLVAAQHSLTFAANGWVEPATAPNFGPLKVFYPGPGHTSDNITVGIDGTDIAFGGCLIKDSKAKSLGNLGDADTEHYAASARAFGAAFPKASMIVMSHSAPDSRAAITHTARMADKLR

Enterobacter cloacae [2] = assay: Effect on growth of Enterobacter cloacae isolate 16 after 24 hrs by broth microdilution method; assay type: organism-based
Klebsiella pneumoniae [3] = assay: Inhibition of IMP4 in Klebsiella pneumoniae isolate 12 assessed as potentiation of meropenem-induced antibacterial activity by measuring meropenem MIC after 24 hrs by broth microdilution method (reference value: 16 ug/ml)
Enterobacter cloacae [4] = assay: Inhibition of IMP4 in Enterobacter cloacae isolate 16 assessed as potentiation of meropenem-induced antibacterial activity by measuring meropenem MIC after 24 hrs by broth microdilution method (reference value: 64 ug/ml)
Klebsiella pneumoniae [5] = assay: Effect on growth of Klebsiella pneumoniae isolate 17 after 24 hrs by broth microdilution method; assay type: organism-based
[6] = biological target: T1, Metallo-beta-lactamase NDM-4 (Escherichia coli); assay: Inhibition of NDM4 in Escherichia coli ATCC 25922 assessed as potentiation of meropenem-induced antibacterial activity by measuring diameter of inhibition zone measured after 18 hrs by agar disk diffusion method
Escherichia coli [7] = assay: Inhibition of NDM1 in Escherichia coli isolate 9 assessed as potentiation of meropenem-induced antibacterial activity by measuring meropenem MIC after 24 hrs by broth microdilution assay
[8] = biological target: T1, Metallo-beta-lactamase NDM-4 (Escherichia coli); assay: Inhibition of NDM4 in Escherichia coli isolate 3 assessed as potentiation of meropenem-induced bactericidal activity by measuring bacterial killing at 64 ug/ml incubated for 24 hrs followed by replating on agar plates for 16 to 18 hrs and measured up to 24 hrs by time kill assay relative to control
Enterobacter cloacae [9] = assay: Effect on growth of Enterobacter cloacae isolate 6 after 24 hrs by broth microdilution assay; assay type: organism-based
HeLa [10] = assay: Cytotoxicity against human HeLa cells at 128 ug/mL after 24 hrs by calcein AM/propidium iodide staining based fluorescence microscopic method; assay type: cell-based
Escherichia coli [11] = assay: Effect on growth of Escherichia coli isolate 3 after 24 hrs by broth microdilution assay; assay type: organism-based
Escherichia coli [12] = assay: Effect on growth of Escherichia coli isolate 9 after 24 hrs by broth microdilution assay; assay type: organism-based
[13] = Competitive inhibition of bacterial NDM1 (G28 to R270 residues) expressed in Escherichia coli BL21 (DE3) using varying levels of MEPM as substrate preincubated for 15 mins followed by substrate addition measured at 60 secs interval up to 60 mins by Lineweaver-Burk plot analysis; parameters: species or system Bacteria
[14] = biological target: T1, Metallo-beta-lactamase NDM-4 (Escherichia coli); assay: Inhibition of NDM4 in Escherichia coli isolate 3 assessed as potentiation of meropenem-induced bactericidal activity by measuring log reduction in bacterial colonies at 64 ug/ml incubated for 24 hrs followed by replating on agar plates for 16 to 18 hrs and measured up to 24 hrs by time kill assay
Klebsiella pneumoniae [15] = assay: Effect on growth of Klebsiella pneumoniae isolate 12 after 24 hrs by broth microdilution method; assay type: organism-based
Enterobacter cloacae [16] = assay: Effect on growth of Enterobacter cloacae isolate 5 after 24 hrs by broth microdilution assay; assay type: organism-based
Escherichia coli [17] = assay: Effect on growth of Escherichia coli isolate 2 after 24 hrs by broth microdilution assay; assay type: organism-based
Enterobacter cloacae [18] = assay: Inhibition of IMP4 in Enterobacter cloacae clinical isolate 15 assessed as potentiation of meropenem-induced antibacterial activity by measuring reduction in meropenem MIC after 24 hrs by broth microdilution method (reference value: 32 ug/ml)
Escherichia coli [19] = assay: Effect on growth of Escherichia coli isolate 18 after 24 hrs by broth microdilution method; assay type: organism-based
Escherichia coli [20] = assay: Effect on growth of Escherichia coli isolate 11 after 24 hrs by broth microdilution method; assay type: organism-based
[21] = biological target: T1, Metallo-beta-lactamase NDM-4 (Escherichia coli); assay: Inhibition of Escherichia coli NDM4 assessed as potentiation of meropenem-induced antibacterial activity by measuring bacterial growth rate at 64 ug/mL after 24 hrs in presence of ZnCl2 by broth microdilution method relative to control
Klebsiella pneumoniae [22] = assay: Inhibition of IMP4 in Klebsiella pneumoniae isolate 13 assessed as potentiation of meropenem-induced antibacterial activity by measuring meropenem MIC after 24 hrs by broth microdilution method (reference value: 320 ug/ml)
[23] = biological target: T1, Metallo-beta-lactamase NDM-4 (Escherichia coli); assay: Inhibition of NDM4 in Escherichia coli isolate 3 assessed as potentiation of meropenem-induced antibacterial activity by measuring meropenem MIC after 24 hrs by broth microdilution assay (reference value: 1280 ug/ml)
Escherichia coli [24] = assay: Inhibition of NDM-7 in Escherichia coli isolate 2 assessed as potentiation of meropenem-induced antibacterial activity by measuring meropenem MIC after 24 hrs by broth microdilution assay (reference value: 640 ug/ml)
HeLa [25] = assay: Cytotoxicity against human HeLa cells at 64 ug/mL after 24 hrs by calcein AM/propidium iodide staining based fluorescence microscopic method; assay type: cell-based
[26] = system: Stenotrophomonas maltophilia; assay: Potency index, ratio of EDTA IC50 to test compound IC50 for Stenotrophomonas maltophilia NDM1 expressed in Escherichia coli BL21 (DE3) expressing measured after 15 minutes at interval of 60s
[27] = Non-competitive inhibition of bacterial NDM1 (G28 to R270 residues) expressed in Escherichia coli BL21 (DE3) using varying levels of MEPM as substrate preincubated for 15 mins followed by substrate addition measured at 60 secs interval up to 60 mins by Lineweaver-Burk plot analysis; parameters: species or system Bacteria

| Compound | inhibition [1] | MIC (Enterobacter cloacae [2]) [µg/mL] | MIC (Klebsiella pneumoniae [3]) [µg/mL] | MIC (Enterobacter cloacae [4]) [µg/mL] | MIC (Klebsiella pneumoniae [5]) [µg/mL] | inhibition zone (IZ) [6] [mm] | MIC (Escherichia coli [7]) [µg/mL] | MIC (Enterobacter cloacae [9]) [µg/mL] | MIC (Escherichia coli [11]) [µg/mL] | MIC (Escherichia coli [12]) [µg/mL] | MIC (Klebsiella pneumoniae [15]) [µg/mL] | MIC (Enterobacter cloacae [16]) [µg/mL] | MIC (Escherichia coli [17]) [µg/mL] | fold change (FC) (Enterobacter cloacae [18]) | MIC (Escherichia coli [19]) [µg/mL] | MIC (Escherichia coli [20]) [µg/mL] | inhibition [21] [%] | MIC (Klebsiella pneumoniae [22]) [µg/mL] | MIC [23] [µg/mL] | MIC (Escherichia coli [24]) [µg/mL] | also measured |
| --- | --- | --- | --- | --- | --- | --- | --- | --- | --- | --- | --- | --- | --- | --- | --- | --- | --- | --- | --- | --- | --- |
| O=C(O)c1cccc(CNCCNCc2cccc(C(=O)O)n2)n1 | Tde | 32 (≈ 96.9 µM) | 0.5 | 2 | 32 (≈ 96.9 µM) | 2 to 5 | 0.25 | 32 (≈ 96.9 µM) | 32 (≈ 96.9 µM) | 32 (≈ 96.9 µM) | 64 (≈ 194 µM) | 64 (≈ 194 µM) | 32 (≈ 96.9 µM) | 64 | 32 (≈ 96.9 µM) | 64 (≈ 194 µM) | 81 | 4 | < 0.0312 | 0.125 | inhibition [8]: 99.9%; Activity (HeLa [10]): Non-Toxic; Ki [13]: 680 nM; FC [14]: 3 |
| COc1ccc(CN(CCN(Cc2ccc(OC)cc2)Cc2cccc(C(=O)O)n2)Cc2cccc(C(=O)O)n2)cc1 | Tde | 32 (≈ 56.1 µM) | 1 | 2 | 32 (≈ 56.1 µM) | 2 to 5 | 0.125 | 32 (≈ 56.1 µM) | 64 (≈ 112 µM) | 32 (≈ 56.1 µM) | 32 (≈ 56.1 µM) | 64 (≈ 112 µM) | 64 (≈ 112 µM) | 64 | 32 (≈ 56.1 µM) | 64 (≈ 112 µM) | 81 | 4 | < 0.0312 | 0.0625 | Activity (HeLa [25]): Non-Toxic; Ratio IC50 [26]: 200; Ki [27]: 144 nM |
